From US20230047788A1, “COMPOSITIONS COMPRISING 5-CHOLESTEN-3, 25-DIOL, 3-SULFATE (25HC3S) OR PHARMACEUTICALLY ACCEPTABLE SALT THEREOF AND AT LEAST ONE CYCLIC OLIGOSACCHARIDE” (Virginia Commonwealth University, priority 2016, published 2023)
Values joined by “and” are separate entries in the source; they are usually repeats but may differ in a detail not shown here. Equal values may be shown once. Read-outs that look alike come from different tables or passages of the source.

Key:
[1] = Solubility of 25HC3S in alpha-, beta- and gamma-cyclodextrin, 10 mM phosphate buffer pH 7.4; assay type: physicochemical; details: for repeated solubility of 25HC3S: repeated experiment
Procedure: The solubility of 25HC3S at ambient room temperature for one day in 5 and 10% (w/v) alpha cyclodextrin (α-CD), 1% (w/v) beta cyclodextrin (β-CD) and 5 and 10% (w/v) gamma cyclodextrin (γ-CD), each containing 10 mM phosphate buffer at pH 7.4 was determined by an HPLC method.
α-CD, β-CD and γ-CD were used in the study. Sodium phosphate monobasic, monohydrate and sodium phosphate, dibasic, anhydrous were used to prepare 10 mM phosphate buffer at pH 7.4.
Approximately 30 to 50 mg of 25HC3S was weighed into a 20 mL vial (5 vials total, one vial for each vehicle). Approximately 8 mL each of 5 and 10% (w/v) α-CD, 1% (w/v) β-CD, and 5 and 10% (w/v) γ-CD containing 10 mM phosphate buffer at pH 7.4 was added to each vial, respectively. The samples were sonicated and vortexed to disperse the drug. The drug suspensions in these 5 vials were stirred at 500 rpm at ambient RT (20.0-22.2° C.). On day 1, approximately 1.2 mL each of the suspensions was transferred into 2 mL conical vials (a total of 5 vials for each suspension) and centrifuged at 12,000 rpm for 10 min. Approximately 1 mL of the supernatant from each suspension (prior to filtration) was used for HPLC analysis. The supernatants for the rest of the vials from the same suspension were combined together and filtered through […], 13 mm in diameter Acrodisk syringe filter with Nylon membrane. The first 2-mL of filtrate was discarded. The next 2 consecutive filtrates of 0.5-0.7 mL each were collected into HPLC vials for analysis.

[2] = dog, in vivo
Procedure: Injection routes of administration used were intramuscular, intravenous or subcutaneous. The following example is a representative injection study.
Beagle dogs (n=5/dose group) received a single intravenous bolus injection or a single subcutaneous injection. The parenteral solution that was tested included 25 mg/mL of 25HC3S sodium salt in vehicle (200 mg/mL hydroxypropyl betadex with 10 mM sodium phosphate buffers, in water). The intravenous dose level of 2.5 mg/kg was administered in a dose volume of 0.1 mL/kg whereas the subcutaneous injection dose level of 20 mg/kg was administered in a dose volume of 0.8 mL/kg. Whole blood samples were collected at pre-dose, 0.5, 1, 2, 4, 8, 12, 24, 32 and 48 hours (h) post dose and the resulting plasma samples underwent analyses to quantify 25HC3S levels. During the in-life period, animals were observed daily for mortality and moribundity with clinical examinations conducted daily.

C[C@H](CCCC(C)(C)O)[C@H]1CC[C@H]2[C@@H]3CC=C4C[C@@H](OS(=O)(=O)[O-])CC[C@]4(C)[C@H]3CC[C@]12C.[Na+] [25HC3S, 5-cholesten-3, 25-diol, 3-sulfate]
25HC3S Solubility ([1]; 0 cyclodextrin, 10 mM phosphate pH 7.4, room temperature): 6 μg/mL and 0.012 mM
25HC3S Solubility ([1]; 1% (w/v) beta-CD): 4.314 mM
Complexation with CD ([1]; 1% (w/v) beta-CD): yes
Ratio of CD/25HC3S ([1]; 1% (w/v) beta-CD): 2 mM/mM
25HC3S Solubility ([1]; 1% (w/v) beta-CD (10 mg/mL), 10 mM phosphate pH 7.4, RT, one day): 2177.4 µg/mL
25HC3S Solubility ([1]; 5% (w/v) alpha-CD): 0.065 mM
Complexation with CD ([1]; 5% (w/v) alpha-CD): no
Ratio of CD/25HC3S ([1]; 5% (w/v) alpha-CD): 791 mM/mM
25HC3S Solubility ([1]; 5% (w/v) alpha-CD (50 mg/mL), 10 mM phosphate pH 7.4, RT, one day): 32.9 µg/mL
25HC3S Solubility ([1]; 5% (w/v) gamma-CD): 1.118 mM
Complexation with CD ([1]; 5% (w/v) gamma-CD): no
Ratio of CD/25HC3S ([1]; 5% (w/v) gamma-CD): 34 mM/mM
25HC3S Solubility ([1]; 5% (w/v) gamma-CD (50 mg/mL), 10 mM phosphate pH 7.4, RT, one day): 564.4 µg/mL
repeated solubility of 25HC3S ([1]; 5% (w/v) γ-CD): 0.2924 mg/mL
25HC3S Solubility ([1]; 10% (w/v) alpha-CD): 0.089 mM
Complexation with CD ([1]; 10% (w/v) alpha-CD): no
Ratio of CD/25HC3S ([1]; 10% (w/v) alpha-CD): 1155 mM/mM
25HC3S Solubility ([1]; 10% (w/v) alpha-CD (100 mg/mL), 10 mM phosphate pH 7.4, RT, one day): 45 µg/mL
25HC3S Solubility ([1]; 10% (w/v) gamma-CD): 0.301 mM
Complexation with CD ([1]; 10% (w/v) gamma-CD): no
Ratio of CD/25HC3S ([1]; 10% (w/v) gamma-CD): 256 mM/mM
25HC3S Solubility ([1]; 10% (w/v) gamma-CD (100 mg/mL), 10 mM phosphate pH 7.4, RT, one day): 152.1 µg/mL
repeated solubility of 25HC3S ([1]; 10% (w/v) γ-CD): 0.0982 mg/mL
AUCall, Mean (SD) ([2]; iv): 489 (464) ng * hr/mL
Cmax ([2]; iv): 0.439 µg/mL
Tmax, Mean (SD) ([2]; iv): 0.5 (0) hr
Cmax ([2]; iv, 2.5 mg/kg): 0.439 µg/mL
mean AUClast ([2]; iv, 2.5 mg/kg): 0.478 µg·h/mL
plasma levels at 8h ([2]; iv, 2.5 mg/kg): no observable levels in most animals (n=4)
time point of maximal concentration ([2]; iv, 2.5 mg/kg): 0.5 h
AUCall, Mean (SD) ([2]; sc): 19676 (3716) ng * hr/mL
Cmax ([2]; sc): 3.94 µg/mL
Tmax, Mean (SD) ([2]; sc): 1.8 (1.3) hr
observed bioavailability ([2]; sc): 0.7
AUClast ([2]; sc, 20 mg/kg): 19.503 µg·h/mL
Cmax ([2]; sc, 20 mg/kg): 3.936 µg/mL
